Results on 35 molecules are retold here after ChEMBL document CHEMBL4270520, “From hit to lead: Structure-based discovery of naphthalene-1-sulfonamide derivatives as potent and selective inhibitors of fatty acid binding protein 4” (Eur J Med Chem, 2018).

Structures are written as SMILES.

A short description of one data set: in vitro. The settings on record: mouse, plasma.
The target of data set [1] is T1, Fatty acid-binding protein, adipocyte (Homo sapiens, UniProt P15090).
Description: Displacement of 1,8-ANS from FABP4 (unknown origin) after 3 mins by fluorescence assay
Another data set deals with 3T3-L1. Nature of the data set: Cytotoxicity against mouse 3T3L1 pre-adipocytes assessed as effect on cell viability up to 80 uM after 24 hrs by MTT assay. The format is cell-based. The note with it: 3t3-l1, 24 h.
A short description of data set [2]: Intrinsic clearance in rat liver microsomes assessed per gram of protein at 0.1 uM by HPLC-MS/MS analysis. It is filed as ADME, microsome. For orientation: Liver microsomes are a subcellular fraction often used to study metabolism.
A short description of data set [3]: Stability in human liver microsomes assessed as parent compound remaining at 0.1 uM after 60 mins by HPLC-MS/MS analysis. It is filed as ADME, microsome. The settings on record: read-out: Stability.
Data set [4] in a line: Intrinsic clearance in mouse liver microsomes assessed per gram of protein at 0.1 uM by HPLC-MS/MS analysis. It is filed as ADME, microsome.
For data set [5], the system named is Mus musculus. The data set can be described thus: Toxicity in C57BL/Ksj db/db mouse assessed as effect on pancreas at 100 mg/kg, po administered once daily via lavage for 5 weeks measured daily during compound dosing. The format is organism-based. The note with it: in vivo, 840 h.
Data set [6] concerns Mus musculus. The data set can be described thus: Hepatotoxicity in C57BL/Ksj db/db mouse at 100 mg/kg, po administered once daily via lavage for 5 weeks measured daily during compound dosing. The format is toxicity, organism-based. The settings on record: in vivo, 840 h.
Data set [7] can be described thus: Half life in mouse liver microsomes at 0.1 uM by HPLC-MS/MS analysis. It is filed as ADME, microsome.
Data set [8] deals with Mus musculus. Nature of the data set: Toxicity in C57BL/Ksj db/db mouse assessed as body weight loss at 100 mg/kg, po administered once daily via lavage for 5 weeks measured daily during compound dosing. The format is organism-based. The note with it: in vivo, 840 h.
Data set [9] in a line: Intrinsic clearance in human liver microsomes assessed per gram of protein at 0.1 uM by HPLC-MS/MS analysis. The format is ADME, microsome.
Data set [10] is described as follows: Stability in rat liver microsomes assessed as parent compound remaining at 0.1 uM after 60 mins by HPLC-MS/MS analysis. It is filed as ADME, microsome. The note with it: read-out: Stability.
A short description of data set [11]: Stability in mouse liver microsomes assessed as parent compound remaining at 0.1 uM after 60 mins by HPLC-MS/MS analysis. It is filed as ADME, microsome. The settings on record: read-out: Stability.
Data set [12] is described as follows: Half life in human liver microsomes at 0.1 uM by HPLC-MS/MS analysis. The format is ADME, microsome.
Data set [13] concerns Mus musculus. The data set can be described thus: Renal toxicity in C57BL/Ksj db/db mouse at 100 mg/kg, po administered once daily via lavage for 5 weeks measured daily during compound dosing. It is filed as organism-based. The settings on record: in vivo, 840 h.
For data set [14], the system named is Mus musculus. The data set can be described thus: Toxicity in C57BL/Ksj db/db mouse assessed as effect on abdominal adipose tissue lipid content at 100 mg/kg, po administered once daily via lavage for 5 weeks measured daily during compound dosing. The format is organism-based. The note with it: in vivo, 840 h.
In data set [15] the target is Fatty acid-binding protein, heart (Homo sapiens, UniProt P05413). The data set can be described thus: Inhibition of FABP3 (unknown origin).
Data set [16] deals with Mus musculus. Nature of the data set: Antidiabetic activity in C57BL/Ksj db/db mouse assessed as reduction in fasting blood glucose level at 100 mg/kg, po administered once daily via lavage for 14 to 35 days relative to control. It is filed as functional. Details: scale not given: the % may be the effect or the level left; call rule not given here.
The test system of data set [17] is Mus musculus. The data set can be described thus: Effect on total cholesterol levels in C57BL/Ksj db/db mouse at 100 mg/kg, po administered once daily via lavage for 2 to 4 weeks. The format is ADME, organism-based. The note with it: in vivo.
A short description of data set [18]: Half life in rat liver microsomes at 0.1 uM by HPLC-MS/MS analysis. The format is ADME, microsome.
The target in data set [19] is T1, Fatty acid-binding protein, adipocyte. Nature of the data set: Binding affinity to FABP4 (unknown origin) by isothermal calorimetric titration method. A general note: ITC needs no label: the signal is the heat of the interaction.

Sequence of Fatty acid-binding protein, heart (P05413 whole entry): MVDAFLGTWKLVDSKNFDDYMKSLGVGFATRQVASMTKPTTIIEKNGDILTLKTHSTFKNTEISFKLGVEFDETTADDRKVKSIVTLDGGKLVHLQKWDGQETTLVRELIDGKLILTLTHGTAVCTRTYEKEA
T1 sequence (P15090 whole entry): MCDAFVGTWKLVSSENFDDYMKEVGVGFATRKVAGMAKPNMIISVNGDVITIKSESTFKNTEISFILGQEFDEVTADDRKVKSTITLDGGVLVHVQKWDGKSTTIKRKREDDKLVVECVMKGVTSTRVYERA
Description for in vitro: Protein binding in mouse plasma at 1 uM after 16 hrs by LC-MS/MS analysis

What is called fraction unbound is free concentration divided by total concentration. As to `CC(C)NCC(O)COc1cccc2ccccc12` (configuration not stated) [PROPRANOLOL], in “in vitro”, the fraction unbound at 16 h, 1 µM was 0.109.

What is called Ki is a dissociation constant, usually derived from enzyme kinetics or from competition with a known ligand. For `O=C(O)CCCCNS(=O)(=O)c1ccc(F)c2ccccc12`, in [1], the Ki is 2160 nM.

The half-life is the time in which the quantity being followed falls by half. One may read the IC50 as the concentration that inhibits the measured activity by half. Regarding `COc1ccc(S(=O)(=O)Nc2cc(C(=O)O)ccc2F)c2ccccc12`, the Activity entry in the data set on 3T3-L1, in the data set on Mus musculus [5], in the data set with Mus musculus [6], in the data set on Mus musculus [8], in the data set on Mus musculus [13] and in the data set with Mus musculus [14] was “Non-Toxic” throughout. Further, the Activity with Mus musculus [16] was 20 - 35%; in the data set on Mus musculus [17], “Non-Toxic”. Besides, the CLint was found to be 2.9 mL/min/g in data set [2], 2.4 mL/min/g in data set [4] and 7.02 mL/min/g in data set [9]. Besides, the remaining at 1 h, 0.1 µM was determined as 73.6% in data set [3], 93.9% in data set [10] and 94.8% in data set [11]. The half-life at 0.1 µM was 14.3 h in [7], 4.99 h in data set [12] and 12.1 h in data set [18]. The same molecule displayed an IC50 in data set [15] above 100000 nM.

In data set [1], `COc1ccc(S(=O)(=O)Nc2cc(C(=O)O)ccn2)c2ccccc12` displayed a Ki above 6140 nM.

Consider `COc1ccc(S(=O)(=O)Nc2cccc(CCC(=O)O)c2)c2ccccc12`, for which, in data set [1], the affinity, expressed as Ki, was 580 nM.

`COc1ccc(S(=O)(=O)Nc2ccc(F)c(C(=O)O)c2F)c2ccccc12` showed a Ki in data set [1] of 7380 nM.

`O=C(O)CCCNS(=O)(=O)c1cc(Cl)cc(Cl)c1` registered a Ki in [1] of 2550 nM.

Regarding `COc1ccc(S(=O)(=O)Nc2cc(C(=O)O)ccc2C)c2ccccc12`, the Ki in data set [1] was 2760 nM.

The Kd is the constant that tells how readily two partners part at equilibrium. In turn, `COc1ccc(S(=O)(=O)Nc2cccc(C(=O)O)c2F)c2ccccc12` had a Kd in data set [19] of 6030 nM. Further, the Ki in data set [1] was found to be 7750 nM.

Regarding `COc1ccc(S(=O)(=O)Nc2cc(C(=O)O)c(F)cc2F)c2ccccc12`, in [1], the IC50 was found to be 1840 nM and the Ki was 230 nM. The IC50 in [15] is above 100000 nM.

In turn, `COc1ccc(S(=O)(=O)Nc2ccc(F)c(C(=O)O)c2)c2ccccc12` had a fraction unbound at 16 h, 1 µM in “in vitro” of 0.0147. Also, the Activity entry in the data set with 3T3-L1, in the data set on Mus musculus [5], with Mus musculus [6], with Mus musculus [8], with Mus musculus [13] and in the data set on Mus musculus [14] was “Non-Toxic” throughout. Moreover, the values for the Activity with Mus musculus [16] and in the data set with Mus musculus [17] were 20 - 35% and “Non-Toxic”, respectively. In addition, the results for the CLint in [2], in [4] and in data set [9] were 3.15 mL/min/g, 1.4 mL/min/g and 7.51 mL/min/g, respectively. Moreover, the remaining at 1 h, 0.1 µM in data set [3] was determined as 72.3%; in data set [10], 93.4%; in [11], 96.9%. For the same molecule, the results for the half-life at 0.1 µM in data set [7], in [12] and in data set [18] were 24.6 h, 4.66 h and 11.1 h, respectively. Further, the values for the IC50 in [1] and in [15] were 1690 nM and above 100000 nM, respectively. In data set [1], this molecule gave a Ki of 210 nM.

In the case of `O=C(O)CCCCCNS(=O)(=O)c1cc(Cl)cc(Cl)c1`, the Ki in data set [1] amounted to 4840 nM.

In data set [1], `COc1ccc(S(=O)(=O)Nc2cccc(C(=O)O)c2C)c2ccccc12` gave a Ki above 6140 nM.

Consider `O=C(O)CCCCNS(=O)(=O)c1cc(Cl)cc(Cl)c1`, for which, in data set [1], the inhibition constant Ki was found to be 1190 nM.

The molecule `COc1ccc(S(=O)(=O)Nc2cc(Cl)cc(C(=O)O)c2)c2ccccc12` registered a Ki in data set [1] of 820 nM.

With `COc1ccc(S(=O)(=O)Nc2cc(F)cc(C(=O)O)c2)c2ccccc12`, in [1], the Ki is 1150 nM.

For `O=C(O)CCCNC(=O)c1cc(Cl)cc(Cl)c1`, the Ki in [1] stood at 4320 nM.

`COc1ccc(C(=O)O)cc1NS(=O)(=O)c1ccc(OC)c2ccccc12`: the Ki in [1] was above 6140 nM.

For the molecule `O=C(O)CCNS(=O)(=O)c1cc(Cl)cc(Cl)c1`, in data set [1], the Ki was determined as 6510 nM.

In data set [1], `O=C(O)CCCCNS(=O)(=O)c1ccc(Br)c2ccccc12` gave a Ki of 1160 nM.

`Cc1cc(C)c(S(=O)(=O)NCCCCC(=O)O)c(C)c1`: the Ki in [1] was 2690 nM.

In [1], `Cc1c(C)c(C)c(S(=O)(=O)NCCCCC(=O)O)c(C)c1C` yielded a Ki of 910 nM.

For the molecule `COc1ccc(S(=O)(=O)NCc2ccc(C(=O)O)cc2)c2ccccc12`, the Ki in [1] amounted to 760 nM.

In data set [1], `COc1ccc(S(=O)(=O)NCc2cccc(C(=O)O)c2)c2ccccc12` showed a Ki of 2120 nM.

As for `COc1ccc(S(=O)(=O)Nc2ccc(CC(=O)O)cc2)c2ccccc12`, in data set [1], the Ki was 1670 nM.

In data set [1], `Cc1cc(C)c(C)c(S(=O)(=O)NCCCCC(=O)O)c1C` gave a Ki of 1950 nM.

Regarding `O=C(O)CCCCNS(=O)(=O)c1ccc(Cl)c2ccccc12`, the Ki in [1] turned out to be 1850 nM.

The molecule `COc1ccc(S(=O)(=O)Nc2ccc(C(=O)O)cc2)c2ccccc12` came in with a Ki in data set [1] of 1280 nM.

`COc1ccc(S(=O)(=O)Nc2cccc(CC(=O)O)c2)c2ccccc12`: affinity in data set [1] was put at a Ki of 840 nM.

Molecule `COc1ccc(S(=O)(=O)Nc2ccc(C)c(C(=O)O)c2)c2ccccc12` registered a Ki in data set [1] above 6140 nM.

As for `COc1ccc(S(=O)(=O)Nc2cncc(C(=O)O)c2)c2ccccc12`, the Ki in data set [1] is above 6140 nM.

For the molecule `O=C(O)CSCC(=O)Nc1cc(Cl)cc(Cl)c1`, in data set [1], the affinity, expressed as Ki, was 1660 nM.

Consider `COc1ccc(S(=O)(=O)Nc2cccc(C(=O)O)c2)c2ccccc12`, for which the results for the IC50 in data set [1] and in data set [15] were 3220 nM and above 100000 nM, respectively. The molecule also had a Ki in data set [1] of 400 nM.

In data set [1], `COc1ccc(S(=O)(=O)Nc2cc(C(=O)O)ccc2Cl)c2ccccc12` showed an inhibition constant (Ki) of 930 nM.

In turn, `COc1ccc(S(=O)(=O)NC(C)c2cccc(C(=O)O)c2)c2ccccc12` (configuration not stated) returned a Ki in data set [1] above 6140 nM.
